Consider 39 molecules from US9439436B2, “Use of aryl carbamates in agriculture and other plant-related areas” (North Carolina State University, priority 2010, dated 2016).

One data set deals with bacteria. The following applies: literature statement; cited from earlier work.
Another data set deals with E. coli. The data set is described as follows: biofilm inhibition, crystal violet reporter assay. It is filed as cell-based. On the technique in general: A reporter such as luciferase makes a cellular process visible.
Data set [1] relates to methicillin-resistant S. aureus (MRSA). The data set can be described thus: biofilm inhibition, crystal violet reporter assay. It is filed as cell-based.
In data set [2] the test system is vancomycin-resistant Enterococcus faecium (VRE). The data set can be described thus: biofilm inhibition, crystal violet reporter assay. It is filed as cell-based.
A further data set deals with S. epidermidis. The data set can be described thus: biofilm inhibition, crystal violet reporter assay. It is filed as cell-based.
The subject of data set [3] is multi-drug resistant Acinetobacter baumannii (MDRAB). The data set can be described thus: biofilm inhibition, crystal violet reporter assay. Format: cell-based.
Data set [4] deals with R. salexigens. The data set is described as follows: biofilm inhibition, crystal violet reporter assay. Format: cell-based, Rhodospirillum salexigens.
Data set [5] concerns R. salexigens. The note with it: reported by Yamada et al.; cited from earlier work.
Data set [6] has as its system S. aureus strains 29213, 29740, and 25923. The data set can be described thus: testing of the library on S. aureus strains. It is filed as cell-based. The note with it: refers to Tables 2 and 3, not given.

As usually defined, the melting point is the temperature, or range, at which the solid turns liquid. For the molecule `CC(C)CCC[C@@H](C)C1CCC2[C@@H]3CC=C4C[C@@H](OC(=O)NCCc5ccc(Br)cc5)CC[C@]4(C)[C@H]3CC[C@]12C` (some centres unmarked), the melting point fell in the range of 142 to 145 °C.
Still for that read-out and setting: under `CC(C)CCC[C@@H](C)C1CCC2[C@@H]3CC=C4C[C@@H](OC(=O)NCCc5ccccc5)CC[C@]4(C)[C@H]3CC[C@]12C` (some centres unmarked) stands 74 to 76 °C.
The same measure, in the same setting: under `CC(C)CCC[C@@H](C)C1CCC2[C@@H]3CC=C4C[C@@H](OC(=O)NC5Cc6ccccc6C5)CC[C@]4(C)[C@H]3CC[C@]12C` (some centres unmarked) stands 114 to 116 °C.
On the same count and under the same terms, under `CC(C)CCC[C@@H](C)C1CCC2[C@@H]3CC=C4C[C@@H](OC(=O)NCCCc5ccccc5)CC[C@]4(C)[C@H]3CC[C@]12C` (some centres unmarked) stands 87 to 89 °C; under `CC(C)CCC[C@@H](C)C1CCC2[C@@H]3CC=C4C[C@@H](OC(=O)NCCn5nccn5)CC[C@]4(C)[C@H]3CC[C@]12C` (some centres unmarked), 135 to 139 °C.
The molecule `CC(C)CCC[C@@H](C)C1CCC2[C@@H]3CC=C4C[C@@H](OC(=O)N5CCc6ccccc65)CC[C@]4(C)[C@H]3CC[C@]12C` (some centres unmarked) gave a melting point of 157 to 159 °C.
Same read-out and setting: under `CC(C)CCC[C@@H](C)C1CCC2[C@@H]3CC=C4C[C@@H](OC(=O)N5CCCc6ccccc65)CC[C@]4(C)[C@H]3CC[C@]12C` (some centres unmarked) stands 107 to 110 °C.
For the molecule `CC1CCC(C(C)C)C(O)C1` (single isomer, unassigned; (-)) [(−)-menthol], the antimicrobial activity result with bacteria is given as “known to possess antimicrobial activity”.
For `CC(C)[C@@H]1CC[C@@H](C)C[C@H]1OC(=O)NCCc1ccccc1` [Compound 2a, (1R, 2 S, 5R)-2-isopropyl-5-methylcyclohexyl phenethylcarbamate], the melting point fell in the range of 84 to 86 °C.
Consider `CCOC(=O)NCCc1ccccc1` [Compound 2d, ethyl N-(2-phenethyl) carbamate], for which the “% Inhibition (200 μM 2d) of biofilm formation” value in the data set on E. coli stood at 40.8%; in [1] (200 μM, MRSA), 68.1%; in data set [2] it was 80.2%; in the data set on S. epidermidis, 63.1%; in [3], 52.0%; in the data set with R. salexigens [4], 59.7%. Moreover, the “antibiofilm activity against Rhodospirillum salexigens” value with R. salexigens [5] is listed as “moderate antibiofilm activity”.
`CCNC(=O)NCCc1ccccc1` [Compound 2g, 1-ethyl-3-phenethylurea] had a melting point of 75 to 77 °C.
As for `CCNC(=S)NCCc1ccccc1` [Compound 2h, 1-ethyl-3-phenethylthiourea], the melting point lay within 56 to 58 °C.
Take `CC(C)[C@@H]1CC[C@@H](C)C[C@H]1OC(=O)NC1Cc2ccccc2C1` [Compound 3a, (1R, 2 S, 5R)-2-isopropyl-5-methylcyclohexyl 2,3-dihydro-1H-inden-2-ylcarbamate]: the melting point is 167 to 170 °C.
The same measure, in the same setting: under `CCSC(=O)NC1Cc2ccccc2C1` [Compound 3b, S-ethyl 2,3-dihydro-1H-inden-2-ylcarbamothioate] stands 107 to 110 °C; under `O=C(NC1Cc2ccccc2C1)OCc1ccccc1` [Compound 3c, benzyl 2,3-dihydro-1H-inden-2-ylcarbamate], 159 to 161 °C.
`CC(C)(C)OC(=O)NC1Cc2ccccc2C1` [Compound 3e, tert-butyl 2,3-dihydro-1H-inden-2-ylcarbamate] displayed a melting point of 51 to 53 °C.
In turn, `CCNC(=O)NC1Cc2ccccc2C1` [Compound 3g, 1-(2,3-dihydro-1H-inden-2-yl)-3-ethylurea] returned a melting point of 117 °C.
`CCNC(=S)NC1Cc2ccccc2C1` [Compound 3h, 1-(2,3-dihydro-1H-inden-2-yl)-3-ethylthiourea]: the melting point lay in the range of 87 to 91 °C.
Consider `CC(C)[C@@H]1CC[C@@H](C)C[C@H]1OC(=O)NCCCc1ccccc1` [Compound 4a, (1R, 2 S, 5R)-2-isopropyl-5-methylcyclohexyl 3-phenylpropylcarbamate], for which the melting point lay in the range of 75 to 78 °C.
The same measure, in the same setting: under `CCNC(=O)NCCCc1ccccc1` [Compound 4g, 1-ethyl-3-(3-phenylpropyl)urea] stands 48 °C; under `CCNC(=S)NCCCc1ccccc1` [Compound 4h, 1-ethyl-3-(3-phenylpropyl)thiourea], 51 to 53 °C; under `CC(C)(C)OC(=O)NCCn1nccn1` [Compound 5e, tert-butyl 2-(2H-1,2,3-triazol-2-yl)ethylcarbamate], 64 to 66 °C.
As for `CCNC(=O)NCCn1nccn1` [Compound 5g, 1-(2-(2H-1,2,3-triazol-2-yl)ethyl)-3-ethylurea], the melting point was 109 °C.
Same read-out and setting: under `CCNC(=S)NCCn1nccn1` [Compound 5h, 1-(2-(2H-1,2,3-triazol-2-yl)ethyl)-3-ethylthiourea] stands 91 to 93 °C; under `CCNC(=O)N1CCc2ccccc21` [Compound 6g, N-ethylindoline-1-carboxamide], 111 to 113 °C; under `CCNC(=S)N1CCc2ccccc21` [Compound 6h, N-ethylindoline-1-carbothioamide], 88 to 91 °C.
The molecule `CCNC(=S)N1CCCc2ccccc21` [Compound 7h, N-ethyl-3,4-dihydroquinoline-1(2H)-carbothioamide] yielded a melting point of 55 to 57 °C.
Take `Nc1ccc(CCNC(=O)OCc2ccccc2)cc1` [Compound 8c, benzyl 4-aminophenethylcarbamate]: the melting point fell in the range of 70 to 73 °C.
The same measure, in the same setting: under `CCNC(=O)NCCc1ccc(N)cc1` [Compound 8g, 1-(4-aminophenethyl)-3-ethylurea] stands 101 to 103 °C.
As to `CC(C)[C@@H]1CC[C@@H](C)C[C@H]1OC(=O)NCCc1ccccn1` [Compound 9a, (1R, 2 S, 5R)-2-isopropyl-5-methylcyclohexyl 2-(pyridin-2-yl)ethylcarbamate], the melting point lay within 59 to 63 °C. Besides, the “IC50 values against MRSA (in words)” value in [1] (refers to Tables 2 and 3, not given) was “lowest IC50 values”. Also, the “activity against 29213, 29740, and 25923 (in words)” value in data set [6] is on record as “worked well”.
`CC(C)[C@H]1CC[C@H](C)C[C@@H]1OC(=O)NCCc1ccccn1` [Compound 9k, (1 S,2R, 5 S)-2-isopropyl-5-methylcyclohexyl 2-(pyridin-2-yl)ethylcarbamate] yielded a melting point of 57 to 59 °C.
For the molecule `CCSC(=O)NCCc1c[nH]c2ccccc12` [Compound 10b, S-ethyl 2-(1H-indol-3-yl)ethylcarbamothioate], the melting point fell in the range of 68 to 70 °C.
Same read-out and setting: under `CCNC(=O)NCCc1c[nH]c2ccccc12` [Compound 10g, 1-(2-(1H-indol-3-yl)ethyl)-3-ethylurea] stands 109 to 112 °C; under `CC(C)[C@@H]1CC[C@@H](C)C[C@H]1OC(=O)NCCc1ccc(Br)cc1` [Compound 11a, (1R, 2 S, 5R)-2-isopropyl-5-methylcyclohexyl 4-bromophenethylcarbamate], 104 to 106 °C; under `CCOC(=O)NCCc1ccc(Br)cc1` [Compound 11d, ethyl 4-bromophenethylcarbamate], 63 to 65 °C.
The same measure, in the same setting: under `CCNC(=O)NCCc1ccc(Br)cc1` [Compound 11g, 1-(4-bromophenethyl)-3-ethylurea] stands 137 to 139 °C; under `COc1ccc(CCNC(=O)O[C@@H]2C[C@H](C)CC[C@H]2C(C)C)cc1` [Compound 12a, (1R, 2 S, 5R)-2-isopropyl-5-methylcyclohexyl 4-methoxyphenethylcarbamate], 95 to 98 °C.
As to `Cc1ccc(C(C)C)cc1O` [carvacrol], the antimicrobial activity result in the data set with bacteria is recorded as “known to possess antimicrobial activity”.
Regarding `Cc1ccc(C(C)C)c(O)c1` [thymol], the antimicrobial activity result in the data set on bacteria is listed as “known to possess antimicrobial activity”.
